Test results from patent US20050209157A1, “Short bioactive peptides and methods for their use” (priority 2001, published 2005).
Converted amounts (≈) assume the structure as drawn. No end group written: not given here.

Tests used:
in vitro [1] = format: cell-based, human; details: human, human red blood cells, pH 7, hemolytic assay, concentration at 50% hemolysis, 1 hour at 37° C.; read-out: LD50
Protocol: This hemolytic assay is based upon that presented in Journal of Peptide Research 53: 82-90 (1999). […] All procedures were performed according to safety protocols pertaining to the handling and disposal of human body fluids.
Red blood cells (RBCs) were washed three times with PBS (35 mM phosphate buffer 0.15 M NaCl, pH 7.0). RBCs suspended in PBS (0.4% (v/v); about 10 ml per 15 peptides) were prepared. Suspensions (100 μl) were aliquoted to each sample and control tube. Serially diluted peptide solutions (100 μl) were pipetted into the sample tubes. Negative control tubes contained 100 μl PBS; positive control tubes contained 100 μl 1% Triton-X100 detergent. All tubes were incubated for 1 hour at 37° C. The tubes were removed from the incubator and centrifuged at 1000 g for 5 minutes. Supernatant (100 μl) was pipetted to a 96-well polyvinyl chloride plate. The absorbance at 414 nm (A414) was measured, and used to calculate the percent hemolysis according to the following formula. [formula]

[2] = system: Staphylococcus aureus ATCC 6538; test: Antimicrobial assay I, MIC by OD measurement; format: cell-based; details: 37° C. for 24 hours, absorbance 620 nm
Excerpt: (§1) The data for the following antimicrobial assay of the peptides have been obtained by making OD measurements in in vitro cell culture experiments with and without added peptide. The protocol used is as follows.
(§2) Cell lines included Staphylococcus aureus ATCC 6538 or 25923, Pseudomonas aeruginosa ATCC 9027 or 27853. Medium used were Antibiotic Medium 3 (Difco), Antibiotic Medium 2 (Difco), and 0.85% saline. Controls used were physiological saline, and gentamycin at 50, 25, 10, 5, 1, and 0.1 ppm.
(§3) Absorbance was read at 620 nm after shaking to resuspend cells.
(§4) Staph6538 is Staphylococcus aureus ATCC accession number 6538; paerug9027 is Pseudomonas aeruginosa ATCC accession number 9027, yeast is Saccharomyces cerevisiae.

[3] = system: Pseudomonas aeruginosa ATCC 9027; test: Antimicrobial assay I, MIC by OD measurement; format: cell-based; details: 37° C. for 24 hours, absorbance 620 nm
Excerpt: as §1, §2, §3, §4

WI38 = details: MTT, 24 hours with peptide; normal fibroblast line
P. aeruginosa H374 = format: cell-based, Pseudomonas aeruginosa
Protocol: The synergistic effects of the inventive peptides with either chloramphenicol or nalidixic acid against efflux mutants of Pseudomonas aeruginosa were investigated. The MIC values were determined for either nalidixic acid or chloramphenicol alone as baselines. Peptides were added at their ¼ MIC concentration, and the concentration of either nalidixic acid or chloramphenicol to arrive at the MIC was determined. […] The fractional inhibitory concentration (FIC) index was used to determine synergy between peptides and antibiotics. Two-fold serial dilutions of antibiotic were tested in the presence of a constant amount of peptide, equal to one quarter of peptide MIC. The FIC index was determined as follows: FIC=0.25+MICantibiotic in combination/MICantibiotic alone. An FIC index of 0.5 or less is considered as synergy.

[4] = system: yeast (Saccharomyces cerevisiae); test: Antimicrobial assay I, yeast assay in RPMI 1640; format: cell-based; details: RPMI 1640 media
Protocol: as §1, §3
The yeast assay was performed in RPMI 1640 media (pH 7.0 at 25° C.).
as §4

in vitro [5] = details: human, WI38 normal lung fibroblast cells, LD50 WI38, WI38 normal lung fibroblast line, MTT, 24 hours with peptide
PC3 = test: Anti-cancer assay, MTT, LD50; format: cell-based; details: 24 hours with peptide, prostate adenocarcinoma
Excerpt: (§5) Numbers are LD50 values (μg/mL).

BMKC = test: Anti-cancer assay, MTT, LD50; format: cell-based; details: BMKC cloned melanoma line, 24 hours with peptide
Excerpt: as §5

HeLaS3 = test: Anti-cancer assay, MTT, LD50; format: cell-based; details: 24 hours with peptide, cervical carcinoma
Excerpt: as §5

H1299 = test: Anti-cancer assay, MTT, LD50; format: cell-based; details: 24 hours with peptide, lung large cell carcinoma
Excerpt: as §5

SW480 = test: Anti-cancer assay, MTT, LD50; format: cell-based; details: SW480 colon adenocarcinoma line, 24 hours with peptide
Excerpt: as §5

MCF7 = test: Anti-cancer assay, MTT, LD50; format: cell-based; details: MCF7 breast adenocarcinoma line, MTT, 24 hours with peptide
Excerpt: as §5

Compound | HC50 at 1 h (in vitro [1]) | staph6538 (MIC) [2] | paerug9027 (MIC) [3] | WI38 LD50 (WI38) | MIC Cm-comb. (P. aeruginosa H374; MIC of chloramphenicol with peptide at ¼ MIC) | FIC Index (P. aeruginosa H374; chloramphenicol + peptide at ¼ MIC, 0.5 or less = synergy) | yeast (MIC or MFC) [4] | CC50 at 24 h (in vitro [5]) | PC3 LD50 (PC3) | LD50 BMKC (BMKC) | HeLaS3 LD50 (HeLaS3) | H1299 LD50 (H1299) | LD50 SW480 (SW480) | LD50 MCF7 (MCF7)
FAKLLAKFLKKAL-NH2 [P113] | 1000 µg/mL | 10 µg/mL | 200 µg/mL | 170 µg/mL | 16 µg/mL | 1.25 | 200 µg/mL | 170 µg/mL | 240 µg/mL | 115 µg/mL | 190 µg/mL | 50 µg/mL | 180 µg/mL | 150 µg/mL
FALLKALKKAL-NH2 [P171, FALLKALKKAL-NH2] | 550 µg/mL | 25 µg/mL | 50 µg/mL | 615 µg/mL | – | – | 100 µg/mL | 615 µg/mL | 600 µg/mL | 600 µg/mL | 820 µg/mL | 540 µg/mL | 770 µg/mL | 305 µg/mL
FKRLAKIKVLRLAKIKR-NH2 [P147] | 300 µg/mL | 5 µg/mL | 5 µg/mL | 83 µg/mL | – | – | 200 µg/mL | 83 µg/mL | 340 µg/mL | 110 µg/mL | > (> indicates greater than 1000) | 93 µg/mL | 185 µg/mL | 106 µg/mL
FAKLWAKLAFGKGIGKVGKKLL-NH2 [P135] | 900 µg/mL | 15 µg/mL | 10 µg/mL | 110 µg/mL | – | – | 50 µg/mL | 110 µg/mL | 310 µg/mL | 155 µg/mL | 215 µg/mL | 115 µg/mL | 80 µg/mL | 54 µg/mL
LKKLAKLALAF-NH2 [P179] | 850 µg/mL | 50 µg/mL | 50 µg/mL | 540 µg/mL | – | – | 100 µg/mL | 540 µg/mL | > (> indicates greater than 1000) | 920 µg/mL | > (> indicates greater than 1000) | > (> indicates greater than 1000) | > (> indicates greater than 1000) | 555 µg/mL
FAKKLAKLAKKLLAL-NH2 [P38, FAKKLAKLAKKLLAL-NH2] | 350 µg/mL | 5 µg/mL | 50 µg/mL | 12 µg/mL | – | – | 50 µg/mL | 12 µg/mL | 10 µg/mL | 21 µg/mL | 35 µg/mL | 33 µg/mL | 13 µg/mL | 17 µg/mL
FAKLLAKLAKAKL-NH2 [P65] | 950 µg/mL | 15 µg/mL | 50 µg/mL | 320 µg/mL | – | – | 200 µg/mL | 320 µg/mL | 470 µg/mL | 250 µg/mL | 210 µg/mL | 450 µg/mL | 345 µg/mL | 475 µg/mL
WALAL-NH2 [P184, WALAL-NH2] | 850 µg/mL | 25 µg/mL | 100 µg/mL | 800 µg/mL | – | – | 100 µg/mL | 800 µg/mL | 570 µg/mL | 600 µg/mL | 302 µg/mL | 370 µg/mL | 440 µg/mL | 260 µg/mL
KWKLFKKALKKLKKALKKAL-NH2 [P104] | 70 µg/mL | 10 µg/mL | 10 µg/mL | 24 µg/mL | – | – | 200 µg/mL | 24 µg/mL | 18 µg/mL | 100 µg/mL | 130 µg/mL | 52 µg/mL | 54 µg/mL | 11 µg/mL
CC(C)C[C@H](NC(=O)[C@H](C)NC(=O)[C@H](CCCCN)NC(=O)[C@H](CC(C)C)NC(=O)[C@H](C)NC(=O)[C@H](CC(C)C)NC(=O)[C@H](C)NC(=O)[C@H](CCCCN)NC(=O)[C@H](CC(C)C)NC(=O)[C@H](C)NC(=O)[C@H](CC(C)C)NC(=O)[C@H](C)NC(=O)[C@H](CC(C)C)NC(=O)[C@H](CCCCN)NC(=O)[C@H](C)NC(=O)[C@H](CC(C)C)NC(=O)[C@H](CCCCN)NC(=O)[C@H](CCCCN)NC(=O)[C@H](C)NC(=O)[C@H](CC(C)C)NC(=O)[C@H](CCCCN)NC(=O)[C@H](CCCCN)NC(=O)[C@H](CC(C)C)NC(=O)[C@H](CCCCN)NC(=O)[C@H](CCCCN)NC(=O)[C@H](C)NC(=O)[C@H](CC(C)C)NC(=O)[C@H](CCCCN)NC(=O)[C@H](CCCCN)NC(=O)[C@H](C)NC(=O)[C@@H](N)Cc1ccccc1)C(N)=O [P98, reference compound] | 60 µg/mL | > (> indicates greater than 200 μg/mL) | > (> indicates greater than 200 μg/mL) | 47 µg/mL | – | – | > (> indicates greater than 200 μg/mL) | 47 µg/mL (≈ 14 µM) | 52 µg/mL | 94 µg/mL | 175 µg/mL | 53 µg/mL | 125 µg/mL | 96 µg/mL
FALALKLAKKAL-NH2 [P167, FALALKLAKKAL-NH2] | 200 µg/mL | 10 µg/mL | 25 µg/mL | 260 µg/mL | – | – | 100 µg/mL | 260 µg/mL | 320 µg/mL | 240 µg/mL | 325 µg/mL | 300 µg/mL | 360 µg/mL | 230 µg/mL
FAKLLAKLAKKGL-NH2 [P152] | 880 µg/mL | 100 µg/mL | 50 µg/mL | 620 µg/mL | – | – | 100 µg/mL | 620 µg/mL | > (> indicates greater than 1000) | > (> indicates greater than 1000) | > (> indicates greater than 1000) | 410 µg/mL | 740 µg/mL | 430 µg/mL
VAKLLAKLAKKLL-NH2 [P48] | 200 µg/mL | 5 µg/mL | 5 µg/mL | 41 µg/mL | – | – | 25 µg/mL | 41 µg/mL | 32 µg/mL | 43 µg/mL | 44 µg/mL | 17 µg/mL | 47 µg/mL | 23 µg/mL
